Data taken from patent publication US20140148482A1, “METHOD FOR SCREENING ANTI-CANCER DRUGS AND METHOD OF CANCER TREATMENT” (National Taiwan University, priority 2012, published 2014).
Read-outs that look alike come from different tables or passages of the source.

What was measured:
[1] = system: GADD45β mRNA in Huh-7 cells; assay: GADD45β mRNA induction in Huh-7 cells, quantitative RT-PCR; assay type: cell-based, human; conditions: 24 hours; for GADD45β mRNA expression induction: Huh-7, 10 uM, FIG. 4B; for GADD45β relative gene expression, Mean: Huh-7 cells, 10 μM, reference control group = 100%
Procedure: (§1) Huh-7 cells, were added with 10 μM of the candidate compound and co-cultured under the same conditions for 24 hours. Sorafenib (10 μM) is used as a positive control group, and Huh-7 cells without compound treatment is used as the reference control group. mRNA levels were assessed through quantitative RT-PCR.
(§2) RNA was extracted using a Trizol reagent (Invitrogen, San Diego, Calif.). cDNAs were synthesized from total RNA (1 μg) using a High Capacity cDNA Archive kit (Applied Biosystems, Foster City, Calif.) and quantified using the TaqMan-Universal or SYBR Green PCR Master Mix (Applied Biosystems, Foster City, Calif.) on an ABI PRISM 7900 Sequence Detection System (Applied Biosystems, Foster City, Calif.). The primers for the GADD45β, GADD45γ and c-jun genes were purchased from Applied Biosystems (ABI TaqMan assay ID: Hs00169587_ml, Hs00198672_ml and Hs00277190_s1). Primers for the hypoxanthine phosphoribosyltransferase (HPRT; sense 5′-[…]-3′ and antisense 5′-[…]-3′) gene were used as endogenous controls. Conditions for PCR were as follows: 50° C. for 2 minutes, 95° C. for 10 minutes, and then 40 cycles of 95° C. for 15 seconds (denaturation) and 60° C. for 1 minute (annealing/extension). The relative mRNA amount of the target/control genes was calculated using the ΔCt (threshold cycle) method: relative expression=2−ΔCt, where ΔCt=Ct (target gene)−Ct (control gene). The gene expression of the reference control group is as 100%.
The effects of GADD45β mRNA induction by different concentrations of the candidate compounds were tested.

[2] = system: c-jun mRNA in Huh-7 cells; assay: c-jun mRNA induction in Huh-7 cells, quantitative RT-PCR; assay type: cell-based, human; conditions: 10 μM, 24 hours, reference control group = 100%
Procedure: as §1, §2

[3] = system: GADD45γ mRNA in Huh-7 cells; assay: GADD45γ mRNA induction in Huh-7 cells, quantitative RT-PCR; assay type: cell-based, human; conditions: for GADD45γ relative gene expression, Mean: Huh-7 cells, 10 μM, 24 hours, reference control group = 100%; for screening criterion: increased expression of GADD45 family: 300% or above of GADD45γ expression, 800% or above of GADD45β expression, or both, Table 1
Procedure: as §1, §2
(§3) SC-20 was then tested for GADD45β, GADD45γ and c-Jun mRNA in sorafenib-sensitive (Huh-7) and sorafenib-resistant (Huh-7R) cell lines. The cell culture and the steps of SC-20 treatment were as described above. The concentration of SC-20 and was 10 μm. Said mRNA was measured via qRT-PCR.
as §2, with “Hs00277190_sl).” for “Hs00277190_s1).”, “gene).” for “gene). The gene expression of the reference control group is as 100%.”

Hep3B cells [4] = assay: MTT cell viability, Hep3B; conditions: for cell viability of Hep3B (percentage of surviving cells): 72 hours of drug treatment, FIG. 2A
Procedure: (§7) Cell viability was assessed using an MTT (3-(4,5-dimethylthiazol-2-yl)-2,5-diphenyltetrazolium bromide) assay
(§8) Cells were cultured in DMEM, containing 10% fetal bovine serum, penicillin (100 units/mL), streptomycin (100 μg/mL), L-glutamine (2 mmol/L), and sodium pyruvate (1 mmol/L) at 37° C. in a humidified incubator containing 5% CO2.
(§9) Then the cells were collected and measured via an MTT assay.

[5] = system: HCC cells (Huh-7, Hep3B, Huh-7R); assay: MTT cell viability of HCC cells (FIG. 2A); assay type: cell-based, human; conditions: 72 hours, especially in sorafenib-resistant cell lines (Hep3B and Huh-7R)
Procedure: as §7
(§10) The HCC cell line, Hep3B, was obtained from the American Type Culture Collection (ATCC), and the Huh-7 cell line was from the Health Science Research Resources Bank. Cells were cultured in DMEM, containing 10% fetal bovine serum, penicillin (100 units/mL), streptomycin (100 μg/mL), L-glutamine (2 mmol/L), and sodium pyruvate (1 mmol/L) at 37° C. in a humidified incubator containing 5% CO2. A sorafenib-resistant cell line, Huh-7R, was generated through continuous treatment of Huh-7 cells with sorafenib up to 10 μmol/L.Human umbilical vein endothelial cells (HUVEC) were procured from ScienCell Research Laboratories, CA. HUVECs were maintained in endothelial cell culture medium (ScienCell) to selectively promote growth at 37° C. in a 5% CO2 incubator.
as §9

Hep3B cells [6] = conditions: human, 72 h
Procedure: as §7, §8, §9

Huh-7 cells [7] = assay: MTT cell viability, Huh-7; assay type: cell-based, human; conditions: sorafenib-sensitive Huh-7, 72 hours, FIG. 5A
Procedure: as §7
The HCC cell line, Hep3B, was obtained from the American Type Culture Collection (ATCC), and the Huh-7 cell line was from the Health Science Research Resources Bank. Cells were cultured in DMEM, containing 10% fetal bovine serum, penicillin (100 units/mL), streptomycin (100 μg/mL), L-glutamine (2 mmol/L), and sodium pyruvate (1 mmol/L) at 37° C. in a humidified incubator containing 5% CO2.
Huh-7 and Hep3B cells were treated with sorafenib, SC-3 or SC-20 for 72 hours, and the cell viability was assessed using an MTT assay.

[8] = system: HUVEC (human umbilical venous endothelial cells); assay: MTT cell viability, HUVEC; assay type: cell-based; conditions: 72 hours, especially in 5 uM treatments, FIG. 2B
Procedure: as §7, §10, §9

[9] = system: GADD45γ mRNA in Huh-7R cells; assay: GADD45γ mRNA induction in sorafenib-resistant Huh-7R cells, qRT-PCR; assay type: cell-based, human; conditions: 10 μm, cut-off more than 300%, FIG. 3B
Procedure: as §3
as §2, with “Hs00277190_sl).” for “Hs00277190_s1).”, “gene).” for “gene). The gene expression of the reference control group is as 100%.”

p-ERK in Huh-7 cells = assay: phospho-ERK protein level by Western blotting, Huh-7; assay type: cell-based, human; conditions: Huh-7, 24 hours, FIG. 4A
Procedure: (§4) Total-ERK, and phospho-ERK protein levels in HCC cells after sorafenib, SC-3 or SC-20 treatment at 24 hours. Whole-cell lysates after drug treatment were examined using Western blotting. Whole cell lysates of HCC cells after drug treatment were prepared and quantified as previously described (Ou D L et al. Cancer Res. 2010; 70:9309-18). SDS-PAGE and Western blot analysis were performed to measure protein expression. Signals were visualized using a UVP Imaging System (UVP, Upland, Calif.), or with X-ray film.

p-ERK in Hep3B cells = assay: phospho-ERK protein level by Western blotting, Hep3B; assay type: cell-based, human; conditions: 24 hours, FIG. 4A
Procedure: as §4

Huh-7 cells [10] = assay: Apoptosis induction (Sub-G1) by flow cytometry; assay type: cell-based, human; conditions: Huh-7, FIGS. 5B and 5C
Huh-7 xenograft = assay: Subcutaneous xenograft model of HCC, Huh-7; assay type: in vivo, mice; conditions: SC-20 20 mg/kg/d vs sorafenib 50 mg/kg/d
Procedure: (§5) The protocol for the in vivo studies was approved by the Institutional Animal Care and Use Committee of College of Medicine, National Taiwan University. All the animal studies were performed according to the criteria outlined in the Guide for the Care and Use of Laboratory Animals prepared by National Academy of Sciences and published by NIH. Male BALB/c athymic (nu+/nu+) mice were inoculated subcutaneously with Huh-7 cells or Huh-7R cells (˜1×10^6). When the tumor volume reached ˜100 mm3 [volume (mm3)=(width)2×length×0.5], the mice were randomized into six treatment groups (n≧6 in each group): (a) vehicle control, (b) SC-20: 5 mg/kg/d, (c) SC-20: 10 mg/kg/d, (d) SC-20: 20 mg/kg/d, (e) SC-20: 50 mg/kg/d and (f) sorafenib: 50 mg/kg/d. Drug treatment was given daily via gavage. Tumor volume and body weight were recorded every 7 days. Tumor images from mice are from sacrifices at 25 days of treatment.
(§6) An additional mice were used to establish xenografts to observe survival time. For these experiments, mice with subcutaneously tumors (100 mm^3) were treated as described above. Survival was monitored until the experiments were terminated due to heavy tumor burden over 2000 mm^3 (FIG. 6C). Tx start, treatment start time; Tx stop, treatment stop time.

Huh-7R xenograft = assay: Subcutaneous xenograft model of HCC, Huh-7R; assay type: in vivo, mice; conditions: SC-20 20 mg/kg/d vs sorafenib 50 mg/kg/d
Procedure: as §5, §6

BNL-MEA allograft = assay: Orthotopic allograft model of HCC, BNL-MEA; assay type: in vivo, mice
Procedure: The protocol for the in vivo studies was approved by the Institutional Animal Care and Use Committee of College of Medicine, National Taiwan University. All the animal studies were performed according to the criteria outlined in the Guide for the Care and Use of Laboratory Animals prepared by National Academy of Sciences and published by NIH. BALB/c mice were anaesthetized with isoflurane, and a small transverse incision was made in the left abdomen. BNL-MEA cells (˜1.5×10^5) suspended in 20 μl PBS were slowly injected with a 30-gauge needle into the left liver lobe, which was exposed through the incision. After injection, the incision was closed by suture with absorbable material. Five days after the surgery, the mice were randomized to three treatment groups (n≧4 in each group): (a) vehicle control, (b) SC-20 20 mg/kg/d and (c) sorafenib 10 mg/kg/d. Drug treatment was given daily via gavage. Mice sacrificed after twenty-five treatments were used as end-points of the therapeutic effect. In FIG. 7C, the arrows indicated the tumors.

| Compound | GADD45β mRNA expression induction [1] | GADD45β relative gene expression, Mean [1] [%] | c-Jun relative gene expression, Mean [2] [%] | GADD45γ relative gene expression, Mean [3] [%] | cell viability of Hep3B (percentage of surviving cells) (Hep3B cells [4]) [%] | screening criterion: increased expression of GADD45 family [3] | growth inhibition of HCC cells compared with sorafenib [5] | further results |
| --- | --- | --- | --- | --- | --- | --- | --- | --- |
| CNC(=O)c1cc(Oc2ccc(NC(=O)Nc3ccc(Cl)c(C(F)(F)F)c3)cc2)ccn1 [sorafenib, Sorafenib, reference compound] | significantly induced | 2226.40 | 447.28 | 1377.54 | 68.57 |  |  |  |
| N#Cc1ccc(Oc2ccc3cccc(NC(=O)Nc4ccc(Cl)c(C(F)(F)F)c4)c3c2)cc1 [SC-72] |  | 1951.02 | 552.00 | 1522.00 |  | satisfied the increased expression of GADD45 family | even more potent than sorafenib | cell viability of Hep3B (percentage of surviving cells) (Hep3B cells [6]): 15.65% |
| Cc1cc(Oc2ccnc3c(N)cccc23)ccc1NC(=O)c1cc(C(F)(F)F)cc(C(F)(F)F)c1 [SC-21] |  | 94.65 | 77.51 | 96.65 |  |  |  |  |
| N#Cc1ccc(Oc2ccc(NC(=O)Nc3ccc(Cl)c(C(F)(F)F)c3)cc2)cc1 [SC-1] |  | 1156.44 | 343.08 | 402.46 |  | satisfied the increased expression of GADD45 family |  |  |
| CC(=O)Nc1cccc2c(Oc3ccc(NC(=O)c4cc(C(F)(F)F)cc(C(F)(F)F)c4)c(C)c3)ccnc12 [SC-22] |  | 340.21 | 183.54 | 229.94 |  |  |  |  |
| Cc1cc(Oc2ccnc3c([N+](=O)[O-])cccc23)ccc1NC(=O)c1cc(C(F)(F)F)cc(C(F)(F)F)c1 [SC-20] | significantly induced | 1674.94 | 515.47 | 364.16 | 36.78 | satisfied the increased expression of GADD45 family | even more potent than sorafenib | GADD45γ mRNA induction ([3]; sorafenib-sensitive Huh-7, 10 μm, cut-off more than 300%, FIG. 3A): can be induced; cell growth inhibition compared with sorafenib (Huh-7 cells [7]): more potency than sorafenib; growth inhibition of HUVECs compared with sorafenib [8]: even more potent than sorafenib; GADD45γ mRNA induction [9]: can be induced; reduction of p-ERK (p-ERK in Huh-7 cells): incapable of reducing p-ERK; reduction of p-ERK (p-ERK in Hep3B cells): incapable of reducing p-ERK; apoptosis induction (Sub-G1) compared with sorafenib (Huh-7 cells [10]): more potency than sorafenib in inducing apoptosis; mice survival time (Huh-7 xenograft; FIG. 6C): significantly prolong mice survival times more than highly dose of sorafenib; tumor growth inhibition (Huh-7 xenograft; daily gavage, FIG. 6A): significantly inhibited tumor growth more than highly dose of sorafenib; mice survival time (Huh-7R xenograft; FIG. 6C): significantly prolong mice survival times more than highly dose of sorafenib; tumor growth inhibition (Huh-7R xenograft; daily gavage, FIG. 6B): significantly inhibited tumor growth more than highly dose of sorafenib; tumor growth in terms of tumor volume and weight (BNL-MEA allograft; BNL-MEA allograft, SC-20 20 mg/kg/d, daily gavage, twenty-five treatments, FIGS. 7A and 7B): significantly inhibited tumor growth; tumor growth inhibition compared with sorafenib (BNL-MEA allograft; orthotopic model, SC-20 20 mg/kg/d vs sorafenib 10 mg/kg/d, FIG. 7C): inhibited tumor growth significantly more than sorafenib; cell growth inhibition compared with sorafenib (Hep3B cells [4]; sorafenib-resistant Hep3B, 72 hours, FIG. 5A): more potency than sorafenib |
